The values that follow come from publication PMC7956560, “New 3-Aryl-2-(2-thienyl)acrylonitriles with High Activity Against Hepatoma Cells” (International Journal of Molecular Sciences, 2021).

One data set relates to human Huh-7 HCC cells. Nature of the data set: Growth inhibition, crystal violet staining, Huh-7. To be noted: 48 h incubation, mean ± SD, read-out: Anti-proliferative activity IC50, Huh-7. The data set is classed as cell-based. How it is done: (§1) The well-differentiated p53 wild-type human hepatoblastoma cell line HepG2 (ATCC# 8065) and the highly differentiated p53 mutated human hepatocellular carcinoma cell line Huh-7 (JCRB#0403) were grown in RPMI 1640 medium supplemented with 10% fetal bovine serum and 100 U/mL penicillin and […] streptomycin. Murine AML-12 hepatocytes were obtained from ATCC (CRL-2254) and grown in DMEM/F-12 Glutamax medium supplemented with 10% fetal bovine serum, 10 µg/mL insulin, 5.5 µg/mL transferrin, 5 ng/mL selenium (Gibco ITS-G 100X) and 40 ng/mL dexamethasone (Sigma-Aldrich). All cell lines were incubated in a 37 °C, 5% CO2, 95% humidified atmosphere.
(§2) Treatment-induced changes in cell number were evaluated by crystal violet staining, as previously described. Briefly, 1.500 cells per well were seeded in 96-well plates for 24 h at 37 °C, 5% CO2. For the experiments with HepG2 and Huh-7 cell lines, cells were incubated with rising concentrations (0–20 µM) of the new compounds (1a–1o) for 48 h. AML12-cells were treated with compounds 1a, 1b, 1c, 1e, 1i and 1j for 48 h and at concentrations ranging from 0.5–64 µM. Thereafter, the cells were fixed with 1% glutaraldehyde and stained with 0.1% crystal violet (Sigma-Aldrich). The unbound dye was removed by rinsing with water. Bound crystal violet was solubilized with 0.2% Triton X-100 (Sigma-Aldrich). Light extinction of crystal violet, which increases linearly with cell number, was analyzed at 570 nm using an ELISA-Reader (Dynex Technologies, Denkendorf, Germany). All experiments were carried out in duplicate or triplicate.

A further data set concerns the target T1, Pim-2 (Homo sapiens, UniProt Q9P1W9).
T1 construct: purchased Eurofins KinaseProfiler service (Eurofins, France)
Nature of the data set: Enzymatic kinase assay (Eurofins KinaseProfiler). The data set is classed as biochemical. To be noted: 10 µM compound, cell-free. How it is done: (§3) The kinase inhibiting potency of compound 1a, 1b and 1c (10 µM) was screened in a cell-free kinase assay, which consisted of a custom panel of 43 human protein kinases for 1c (listed in Figure 5A), as well as a subpanel of six kinases for 1a and 1b (Figure 5B). The initial panel was chosen to screen the lead compound 1c based on the union of two strategies. A total of 29 kinases were selected based on the correlated results of three in silico target prediction methods including structure- as well as ligand-based techniques and 20 kinases because of their relevance for HCC (note that six kinases were part of both strategies).
(§4) The assay was performed by Eurofins KinaseProfilerTM service (Eurofins, France) and the determination of enzymatic activity was assessed as previously described. Additionally, an IC50 determination of compound 1c against the VEGFR-2 was performed with a concentration range of 0.003 to 30 µM.

The target of another data set is T2, CLK1 (Homo sapiens, UniProt P49759).
T2 construct: purchased Eurofins KinaseProfiler service (Eurofins, France)
T2 sequence (P49759 whole entry): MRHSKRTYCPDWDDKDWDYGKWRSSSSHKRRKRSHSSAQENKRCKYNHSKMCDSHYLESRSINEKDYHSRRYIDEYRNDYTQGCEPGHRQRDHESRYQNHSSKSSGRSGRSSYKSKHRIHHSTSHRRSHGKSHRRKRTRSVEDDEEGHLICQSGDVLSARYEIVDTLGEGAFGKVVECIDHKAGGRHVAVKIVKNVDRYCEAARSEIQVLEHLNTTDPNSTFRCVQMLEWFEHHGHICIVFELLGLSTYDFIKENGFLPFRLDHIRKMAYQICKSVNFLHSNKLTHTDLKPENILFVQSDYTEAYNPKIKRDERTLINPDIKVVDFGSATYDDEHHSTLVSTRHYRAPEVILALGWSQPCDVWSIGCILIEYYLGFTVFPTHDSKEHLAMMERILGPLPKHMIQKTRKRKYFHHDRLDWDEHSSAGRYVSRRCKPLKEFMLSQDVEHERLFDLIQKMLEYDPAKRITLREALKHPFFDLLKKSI
Nature of the data set: Enzymatic kinase assay (Eurofins KinaseProfiler). In kind it is biochemical. The note with it: 10 µM compound, cell-free. How it is done:
as §3, §4

A further data set addresses T3, EGFR (Homo sapiens, UniProt P00533).
T3 construct: purchased Eurofins KinaseProfiler service (Eurofins, France)
Nature of the data set: Enzymatic kinase assay (Eurofins KinaseProfiler). In kind it is biochemical. The note with it: 10 µM compound, cell-free. How it is done: as §3, §4

Another data set addresses T4, VEGFR-1 (Homo sapiens, UniProt P17948).
T4 construct: purchased Eurofins KinaseProfiler service (Eurofins, France)
In words: Enzymatic kinase assay (Eurofins KinaseProfiler). The note with it: 10 µM compound, cell-free. The data set is classed as biochemical. The protocol:
as §3, §4

Another data set addresses T5, IGF-1R (Homo sapiens, UniProt P08069).
T5 construct: purchased Eurofins KinaseProfiler service (Eurofins, France)
In words: Enzymatic kinase assay (Eurofins KinaseProfiler). In kind it is biochemical. To be noted: 10 µM compound, cell-free. The protocol:
as §3, §4

The subject of data set [1] is HepG2-tumors grown on membranes of fertilized chicken eggs. In words: Chorioallantoic membrane (CAM) assay. The data set is classed as in vivo. How it is done: The chorioallantoic membrane (CAM) assay was performed as described previously. Fertilized chicken eggs (Gallus gallus) were obtained from commercial sources (Valo GmbH, Germany) and incubated in a humid environment at 38 °C. On day 3 of the egg development, a window was cut in the eggshell to access the developing vascular network of the CAM. At day 10 of chicken embryo development, a sterile silicon ring (10 mm diameter) was placed on the CAM and tumor plugs of 3 × 10^6 HepG2 cells in 20 µL Matrigel (BD Biosciences) with reduced growth factors were placed inside the silicon ring. After 24 h at 38 °C in an incubator, the tumor plaques attached and connected to the (tumor-)feeding CAM microvasculature. Then, the tumor plaques were topically treated with either PBS (negative control) or PBS containing rising concentrations of 1b (0–10 µM), 1c (0–2.5 µM) or sorafenib (10 μM) for 3 days. Tumor growth and viability of the embryo were controlled daily by stereo microscopy. After 72 h of treatment, the tumors were recovered for weighing and pictures were taken using a stereomicroscope equipped with a Kappa digital camera system (Kappa Optronics GmbH, Germany). For data analysis, the tumor weight of 1c-treated and untreated control tumors was determined and the mean weight of treated vs. untreated tumors of 11 eggs for each condition was calculated. Statistical significance evaluated by one-way ANOVA tests.

The subject of data set [2] is caspase-3 activity of HepG2 cells. Nature of the data set: Apoptosis-specific caspase-3 activity. In kind it is cell-based, human. To be noted: HepG2, 1 and 10 µM, 24 h. How it is done: Changes in caspase-3 activity were measured by the cleavage of the fluorogenic substrate AC-DEVD-AMC (EMD Millipore, Billerica, MA, USA), as described previously. After 24 h of incubation with 1a, 1b, 1c, 1e and sorafenib (1 and 10 µM) the cells were harvested and lysed with lysis buffer. Subsequently, the lysates were incubated for 1 h at 37 °C with a substrate solution containing 20 μg/mL AC-DEVD-AMC, 20 mM HEPES, 10% glycerol and 2 mM DTT at pH 7.5. Substrate cleavage was measured fluorometrically using a Varioskan Flash Fluorometer (Thermo Fisher Scientific, Waltham, MA, USA; filter sets: ex 360/40 nm, em 460/10 nm). n = 3 independent measurements were performed in triplicate, and data are given as the mean percentage increase ± SD above control, which was set 100%.

For data set [3], the system named is non-malignant murine AML-12 hepatocytes. Nature of the data set: Growth inhibition, crystal violet staining, AML-12. The data set is classed as cell-based. The protocol: as §1, §2
The next data set relates to HepG2 cells. Nature of the data set: Colony-formation assay. The data set is classed as cell-based, human. How it is done:
HepG2 cells were seeded in 6-well plates at a density of 300 cells/well and allowed to attach overnight. […] Then, the plates were washed twice with PBS, fixed with 4% formaldehyde for 1 h, and stained with 0.5% crystal violet for 3 min. Excessive crystal violet was washed out and the colonies were counted under the microscope. A colony was defined as a cell aggregate with 50 or more cells. Representative images were taken with a kappa digital camera system (Kappa Optronics GmbH, Germany). A total of n = 3 experiments were performed, and significance was tested by one-way ANOVA assays.

The test system of data set [4] is human HepG2 hepatoblastoma cells. In words: Growth inhibition, crystal violet staining, HepG2. In kind it is cell-based. The note with it: 48 h incubation, mean ± SD, read-out: Anti-proliferative activity IC50, HepG2. How it is done:
as §1, §2

T5 sequence (P08069 31-1367): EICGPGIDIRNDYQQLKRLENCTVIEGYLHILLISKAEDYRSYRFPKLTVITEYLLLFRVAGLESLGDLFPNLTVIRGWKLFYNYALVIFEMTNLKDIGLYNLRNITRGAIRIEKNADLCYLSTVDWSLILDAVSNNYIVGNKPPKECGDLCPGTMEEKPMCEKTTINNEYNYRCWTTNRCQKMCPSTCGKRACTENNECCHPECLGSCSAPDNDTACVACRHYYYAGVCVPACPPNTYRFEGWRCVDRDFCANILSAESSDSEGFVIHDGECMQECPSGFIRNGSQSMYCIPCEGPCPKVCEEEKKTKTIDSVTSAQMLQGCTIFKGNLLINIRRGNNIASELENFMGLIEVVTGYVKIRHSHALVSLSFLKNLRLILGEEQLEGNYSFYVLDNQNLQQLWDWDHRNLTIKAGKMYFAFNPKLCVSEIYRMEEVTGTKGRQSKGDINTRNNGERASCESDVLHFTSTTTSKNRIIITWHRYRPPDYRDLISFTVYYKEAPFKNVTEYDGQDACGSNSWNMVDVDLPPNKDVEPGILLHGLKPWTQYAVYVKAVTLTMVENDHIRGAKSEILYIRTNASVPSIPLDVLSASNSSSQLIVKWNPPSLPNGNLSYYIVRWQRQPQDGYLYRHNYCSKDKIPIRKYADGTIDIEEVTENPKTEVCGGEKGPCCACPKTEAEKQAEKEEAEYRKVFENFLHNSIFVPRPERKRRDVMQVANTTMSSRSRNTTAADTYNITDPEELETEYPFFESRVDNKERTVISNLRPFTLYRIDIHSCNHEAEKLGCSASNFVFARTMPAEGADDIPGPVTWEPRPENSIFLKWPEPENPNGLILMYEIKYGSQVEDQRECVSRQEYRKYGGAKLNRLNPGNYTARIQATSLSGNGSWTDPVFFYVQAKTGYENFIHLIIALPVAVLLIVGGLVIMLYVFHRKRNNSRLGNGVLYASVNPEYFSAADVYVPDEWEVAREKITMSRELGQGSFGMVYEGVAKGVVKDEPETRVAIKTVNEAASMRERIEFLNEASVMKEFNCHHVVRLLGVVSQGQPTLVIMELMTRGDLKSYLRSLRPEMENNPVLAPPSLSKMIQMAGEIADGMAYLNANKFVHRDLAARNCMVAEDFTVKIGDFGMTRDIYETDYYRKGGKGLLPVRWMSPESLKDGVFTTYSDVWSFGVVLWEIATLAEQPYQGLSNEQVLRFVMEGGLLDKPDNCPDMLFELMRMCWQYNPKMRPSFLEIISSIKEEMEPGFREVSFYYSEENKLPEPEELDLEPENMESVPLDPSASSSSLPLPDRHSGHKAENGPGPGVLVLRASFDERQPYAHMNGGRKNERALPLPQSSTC
T4 sequence (P17948 27-1338): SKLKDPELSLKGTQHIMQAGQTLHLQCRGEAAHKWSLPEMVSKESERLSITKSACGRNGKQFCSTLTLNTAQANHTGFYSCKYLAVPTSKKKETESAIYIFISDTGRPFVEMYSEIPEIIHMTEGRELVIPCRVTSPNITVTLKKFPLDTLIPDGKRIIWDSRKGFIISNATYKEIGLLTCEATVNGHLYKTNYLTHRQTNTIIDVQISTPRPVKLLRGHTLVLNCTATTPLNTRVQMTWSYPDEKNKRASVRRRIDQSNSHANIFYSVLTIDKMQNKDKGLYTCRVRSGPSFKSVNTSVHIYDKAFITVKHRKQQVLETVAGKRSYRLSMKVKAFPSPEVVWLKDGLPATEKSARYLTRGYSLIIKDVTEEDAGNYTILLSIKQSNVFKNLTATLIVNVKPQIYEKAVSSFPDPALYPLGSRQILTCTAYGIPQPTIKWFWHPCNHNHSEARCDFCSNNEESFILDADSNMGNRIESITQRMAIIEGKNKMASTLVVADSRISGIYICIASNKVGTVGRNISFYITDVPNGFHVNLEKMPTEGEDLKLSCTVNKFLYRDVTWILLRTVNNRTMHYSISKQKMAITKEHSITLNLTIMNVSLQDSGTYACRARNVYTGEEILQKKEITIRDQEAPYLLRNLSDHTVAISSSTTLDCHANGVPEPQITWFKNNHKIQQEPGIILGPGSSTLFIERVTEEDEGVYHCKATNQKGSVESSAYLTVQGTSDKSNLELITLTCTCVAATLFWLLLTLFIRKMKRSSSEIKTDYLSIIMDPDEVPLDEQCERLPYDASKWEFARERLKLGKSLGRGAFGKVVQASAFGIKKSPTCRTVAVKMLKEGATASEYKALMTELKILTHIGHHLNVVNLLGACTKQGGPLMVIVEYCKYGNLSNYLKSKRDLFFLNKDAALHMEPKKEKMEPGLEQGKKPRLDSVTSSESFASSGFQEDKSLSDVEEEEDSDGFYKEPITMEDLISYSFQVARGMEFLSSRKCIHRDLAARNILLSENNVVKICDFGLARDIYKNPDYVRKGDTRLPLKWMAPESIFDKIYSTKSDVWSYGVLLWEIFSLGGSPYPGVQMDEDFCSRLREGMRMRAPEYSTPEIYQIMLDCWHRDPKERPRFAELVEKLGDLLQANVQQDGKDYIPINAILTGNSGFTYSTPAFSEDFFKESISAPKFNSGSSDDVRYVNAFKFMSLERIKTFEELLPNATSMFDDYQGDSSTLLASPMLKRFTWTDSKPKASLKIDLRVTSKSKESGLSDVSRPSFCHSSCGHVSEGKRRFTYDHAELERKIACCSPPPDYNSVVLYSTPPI
T1 sequence (Q9P1W9 whole entry): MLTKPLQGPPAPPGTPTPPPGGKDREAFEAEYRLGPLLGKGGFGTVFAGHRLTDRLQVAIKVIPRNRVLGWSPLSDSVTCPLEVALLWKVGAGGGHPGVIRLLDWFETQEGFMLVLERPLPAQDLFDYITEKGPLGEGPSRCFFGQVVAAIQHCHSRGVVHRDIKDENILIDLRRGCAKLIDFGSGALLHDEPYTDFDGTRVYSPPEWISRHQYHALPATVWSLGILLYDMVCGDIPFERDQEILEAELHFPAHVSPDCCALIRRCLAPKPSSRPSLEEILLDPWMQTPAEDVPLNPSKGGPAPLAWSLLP
T3 sequence (P00533 25-1210): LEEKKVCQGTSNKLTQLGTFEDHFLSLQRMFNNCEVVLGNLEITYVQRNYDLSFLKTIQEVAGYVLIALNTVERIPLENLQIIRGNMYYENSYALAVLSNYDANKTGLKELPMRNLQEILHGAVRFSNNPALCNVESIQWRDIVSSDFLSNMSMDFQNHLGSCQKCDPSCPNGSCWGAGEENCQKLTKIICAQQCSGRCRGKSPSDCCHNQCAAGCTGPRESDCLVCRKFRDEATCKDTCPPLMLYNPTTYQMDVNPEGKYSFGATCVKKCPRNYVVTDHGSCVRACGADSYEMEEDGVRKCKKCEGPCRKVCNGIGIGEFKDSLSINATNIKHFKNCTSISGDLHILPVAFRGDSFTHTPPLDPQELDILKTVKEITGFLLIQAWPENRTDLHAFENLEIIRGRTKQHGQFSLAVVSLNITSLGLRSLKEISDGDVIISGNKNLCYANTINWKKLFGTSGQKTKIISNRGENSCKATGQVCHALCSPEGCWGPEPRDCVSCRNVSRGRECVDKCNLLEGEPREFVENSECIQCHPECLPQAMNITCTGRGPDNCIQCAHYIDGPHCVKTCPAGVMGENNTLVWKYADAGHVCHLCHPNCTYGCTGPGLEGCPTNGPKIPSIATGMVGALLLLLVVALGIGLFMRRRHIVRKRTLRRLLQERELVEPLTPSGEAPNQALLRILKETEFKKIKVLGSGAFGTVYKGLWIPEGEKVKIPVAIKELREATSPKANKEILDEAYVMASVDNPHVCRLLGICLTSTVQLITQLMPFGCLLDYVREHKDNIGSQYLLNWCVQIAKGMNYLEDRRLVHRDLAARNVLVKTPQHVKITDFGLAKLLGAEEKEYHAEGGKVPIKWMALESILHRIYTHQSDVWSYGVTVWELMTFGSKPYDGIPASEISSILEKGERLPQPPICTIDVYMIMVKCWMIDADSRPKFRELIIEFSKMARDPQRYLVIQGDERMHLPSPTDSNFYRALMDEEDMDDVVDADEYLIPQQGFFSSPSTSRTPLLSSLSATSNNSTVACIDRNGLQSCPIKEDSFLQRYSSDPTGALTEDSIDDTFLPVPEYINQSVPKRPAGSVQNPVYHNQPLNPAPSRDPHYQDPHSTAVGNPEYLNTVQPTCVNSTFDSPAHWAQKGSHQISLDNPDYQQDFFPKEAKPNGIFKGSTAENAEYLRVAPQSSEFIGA

With `COc1ccc(C=C(C#N)c2cccs2)cc1O` [Compound 1c, 2-[1-Cyano-2-(3-hydroxy-4-methoxyphenyl)-(E)-ethenyl)]-thiophene], the concentration for half-maximal inhibition (IC50) (as a rule, the concentration that gives 50% inhibition) was 320 ± 150 nM with human Huh-7 HCC cells; 1810 ± 310 nM in [3] (Mus musculus, AML12, 48 h incubation, mean ± SD, read-out: Anti-proliferative activity IC50, AML-12); 550 ± 260 nM in data set [4]. Besides, the inhibition (as a rule, the relative decrease from the control value, in per cent) at 10 µM against Pim-2 came out at 60%; against CLK1, 69%; at VEGFR-1, 75%. In addition, on EGFR, the “inhibition of EGFR (in words)” value is listed as “no relevant inhibition”. The “inhibition of IGF-1R (in words)” value on IGF-1R is reported as “no relevant inhibition”. In addition, in data set [1] (extracted tumors after 3 days of treatment, 1c 0–2.5 µM), the “tumor weight after treatment (in words)” value is “significant mass reduction”. The “tumor reduction vs PBS-treated controls (in words)” value in data set [1] (topical treatment 72 h, 1b 0–10 µM, 1c 0–2.5 µM, sorafenib 10 µM) is on record as “pronounced tumor reductions”. In addition, the “tolerability, mortality and development of chicken embryos” value in data set [1] (treated vs untreated eggs) is “well tolerated”. Also, the “caspase-3 activity (in words)” value in [2] is “dose-dependently induced caspase-3 activity”. For the same molecule, the “IC50 against AML-12 hepatocytes relative to hepatoma cells” value in data set [3] (AML-12 vs hepatoma cells (HepG2, Huh-7), 48 h) is “up to 10 fold”. Besides, the “effect on HepG2 colony formation (in words)” value with HepG2 cells (1, 5, 10 µM, 14 days) is “significantly inhibited HepG2 colony formation”. For the same molecule, the “inhibition of colony formation” value with HepG2 cells (HepG2, after two weeks) is roughly 100%.
